Experimental data: the NIST ThermoML archive (doi:10.1016/j.fluid.2014.10.004)

Tests used:
[1] = refractive index (Na D-line) (dimensionless); settings: 101.33 kPa, Liquid, Standard Abbe refractometry
[2] = 101.3 kPa, Liquid, Sing-around technique in a fixed-path interferometer
[3] = refractive index (Na D-line) (dimensionless); xn = mol fraction of the nth substance listed; settings: 101.3 kPa, Liquid, Standard Abbe refractometry
[4] = xn = mol fraction of the nth substance listed; settings: 101.3 kPa, Liquid, Sing-around technique in a fixed-path interferometer

CC(Cl)(Cl)Cl [1,1,1-trichloroethane]
Settings	refractive index, 298.15 K	refractive index, 308.15 K	refractive index, 318.15 K	speed of sound, 298.15 K [m/s]	speed of sound, 308.15 K [m/s]	speed of sound, 318.15 K [m/s]
[1]	1.43492	1.42908	1.42311	–	–	–
[2]	–	–	–	962.94	928.68	894.71

ClC(Cl)C(Cl)Cl [1,1,2,2-tetrachloroethane]
Settings	refractive index, 298.15 K	refractive index, 308.15 K	refractive index, 318.15 K	speed of sound, 298.15 K [m/s]	speed of sound, 308.15 K [m/s]	speed of sound, 318.15 K [m/s]
[1]	1.49174	1.48654	1.48137	–	–	–
[2]	–	–	–	1150.6	1118.7	1087

ClCCCl [1,2-dichloroethane]
Settings	refractive index, 298.15 K	refractive index, 308.15 K	refractive index, 318.15 K	speed of sound, 298.15 K [m/s]	speed of sound, 308.15 K [m/s]	speed of sound, 318.15 K [m/s]
[1]	1.44206	1.43661	1.43109	–	–	–
[2]	–	–	–	1194.4	1156.1	1117.8

ClCCCCl [1,3-dichloropropane]
Settings	refractive index, 298.15 K	refractive index, 308.15 K	refractive index, 318.15 K	speed of sound, 298.15 K [m/s]	speed of sound, 308.15 K [m/s]	speed of sound, 318.15 K [m/s]
[1]	1.44617	1.44123	1.43614	–	–	–
[2]	–	–	–	1236.5	1199.7	1163.2

ClCCCCCl [1,4-dichlorobutane]
Settings	refractive index, 298.15 K	refractive index, 308.15 K	refractive index, 318.15 K	speed of sound, 298.15 K [m/s]	speed of sound, 308.15 K [m/s]	speed of sound, 318.15 K [m/s]
[1]	1.45224	1.44756	1.44279	–	–	–
[2]	–	–	–	1286.6	1251	1215.7

CCCCCl [1-chlorobutane]
Settings	refractive index, 298.15 K	refractive index, 308.15 K	refractive index, 318.15 K	speed of sound, 298.15 K [m/s]	speed of sound, 308.15 K [m/s]	speed of sound, 318.15 K [m/s]
[1]	1.39953	1.39413	1.38851	–	–	–
[2]	–	–	–	1119	1078	1037.3

CCCCCCl [1-chloropentane]
Settings	refractive index, 298.15 K	refractive index, 308.15 K	refractive index, 318.15 K	speed of sound, 298.15 K [m/s]	speed of sound, 308.15 K [m/s]	speed of sound, 318.15 K [m/s]
[1]	1.41015	1.40501	1.39984	–	–	–
[2]	–	–	–	1164.2	1124.9	1085.8

C[N+](=O)[O-] [nitromethane]
Settings	refractive index, 298.15 K	refractive index, 308.15 K	refractive index, 318.15 K	speed of sound, 298.15 K	speed of sound, 308.15 K	speed of sound, 318.15 K
[1]	1.37951 [middle of 8 runs]	1.37473 [middle of 7 runs]	1.37001 [middle of 7 runs]	–	–	–
[2]	–	–	–	1321.3 m/s [middle of 9 runs]	1281.9 m/s [middle of 7 runs]	1242.5 m/s [middle of 8 runs]

C[N+](=O)[O-] [nitromethane] + CCCCCl
Settings	refractive index, 298.15 K	refractive index, 308.15 K	refractive index, 318.15 K	speed of sound, 298.15 K [m/s]	speed of sound, 308.15 K [m/s]	speed of sound, 318.15 K [m/s]
[3], x2 = 0	1.37917	1.37447	1.3695	–	–	–
[3], x2 = 0.1107	1.38191	1.37698	1.3718	–	–	–
[3], x2 = 0.2174	1.38445	1.37936	1.37406	–	–	–
[3], x2 = 0.3236	1.38691	1.38174	1.37632	–	–	–
[3], x2 = 0.3932	1.38839	1.38321	1.37772	–	–	–
[3], x2 = 0.4856	1.39032	1.38511	1.37958	–	–	–
[3], x2 = 0.5569	1.39177	1.38656	1.38104	–	–	–
[3], x2 = 0.6626	1.39383	1.38853	1.38299	–	–	–
[3], x2 = 0.7722	1.39577	1.39045	1.3848	–	–	–
[3], x2 = 0.8646	1.39729	1.39196	1.38635	–	–	–
[4], x2 = 0	–	–	–	1321.5	1282.1	1242.8
[4], x2 = 0.1107	–	–	–	1273.7	1234.3	1195
[4], x2 = 0.2174	–	–	–	1236.5	1197.1	1157.8
[4], x2 = 0.3236	–	–	–	1207.6	1168.1	1128.9
[4], x2 = 0.3932	–	–	–	1191.9	1152.3	1112.8
[4], x2 = 0.4856	–	–	–	1174.5	1134.7	1094.9
[4], x2 = 0.5569	–	–	–	1163.5	1123.2	1083.1
[4], x2 = 0.6626	–	–	–	1149.3	1109.1	1068.9
[4], x2 = 0.7722	–	–	–	1137.6	1096.8	1056.6
[4], x2 = 0.8646	–	–	–	1129.1	1088.3	1047.8

C[N+](=O)[O-] [nitromethane] + ClC(Cl)C(Cl)Cl
x2 = 0
Settings	refractive index, 298.15 K	refractive index, 308.15 K	refractive index, 318.15 K	speed of sound, 298.15 K [m/s]	speed of sound, 308.15 K [m/s]	speed of sound, 318.15 K [m/s]
[3]	1.37946	1.37472	1.36996	–	–	–
[4]	–	–	–	1321.2	1281.8	1242.5
